Measurements from article PMC3856649 (Clinical cancer research : an official journal of the …, 2012).
“And” between values parts separate entries of the source, which are not always exact repeats. Identical values can stand only once.

Key:
AAG = conditions: cited from earlier work
[1] = daily oral 150 mg/d in patients with cancer; cited from earlier work
HSA = HSA (Homo sapiens, UniProt P02768); assay: Equilibrium dialysis; type: binding
[2] = Clinical plasma pharmacokinetics in patients with advanced breast cancer; type: in vivo, human; conditions: for Tmax: po, 20 mg
NOTCH1 = assay: In vitro Notch cellular assay; type: cell-based, human
plasma proteins [3] = tested on: plasma proteins
plasma proteins [4] = tested on: plasma proteins; remark: listed apart in the source
in vitro = conditions: human, human plasma, pH 7.2
[5] = target: human α1-acid glycoprotein (AAG) (Homo sapiens, UniProt P02763); assay: Equilibrium dialysis, binding in isolated AAG solution; conditions: for mean Fu: total drug 500 ng/mL (1,065 nmol/L); for RO4929097 fraction unbound estimated from Equation (A): nK 1.0 × 10^6 L/mol; for maximum binding concentration (nP) of AAG: estimate ± SE
[6] = given alone, 20 mg orally, median (interquartile range), n = 8
[7] = single oral dose of 20 mg in 8 patients
[8] = Homo sapiens, U2OS, 24 h, read-out: inhibition of cellular Notch activity

Sequence of human α1-acid glycoprotein (AAG) (P02763 19-201): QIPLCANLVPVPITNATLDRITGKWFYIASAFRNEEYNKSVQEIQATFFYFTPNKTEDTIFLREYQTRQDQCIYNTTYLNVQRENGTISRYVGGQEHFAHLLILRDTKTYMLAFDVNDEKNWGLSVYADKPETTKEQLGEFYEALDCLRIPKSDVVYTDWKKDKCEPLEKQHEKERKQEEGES
Sequence of HSA (P02768 25-609): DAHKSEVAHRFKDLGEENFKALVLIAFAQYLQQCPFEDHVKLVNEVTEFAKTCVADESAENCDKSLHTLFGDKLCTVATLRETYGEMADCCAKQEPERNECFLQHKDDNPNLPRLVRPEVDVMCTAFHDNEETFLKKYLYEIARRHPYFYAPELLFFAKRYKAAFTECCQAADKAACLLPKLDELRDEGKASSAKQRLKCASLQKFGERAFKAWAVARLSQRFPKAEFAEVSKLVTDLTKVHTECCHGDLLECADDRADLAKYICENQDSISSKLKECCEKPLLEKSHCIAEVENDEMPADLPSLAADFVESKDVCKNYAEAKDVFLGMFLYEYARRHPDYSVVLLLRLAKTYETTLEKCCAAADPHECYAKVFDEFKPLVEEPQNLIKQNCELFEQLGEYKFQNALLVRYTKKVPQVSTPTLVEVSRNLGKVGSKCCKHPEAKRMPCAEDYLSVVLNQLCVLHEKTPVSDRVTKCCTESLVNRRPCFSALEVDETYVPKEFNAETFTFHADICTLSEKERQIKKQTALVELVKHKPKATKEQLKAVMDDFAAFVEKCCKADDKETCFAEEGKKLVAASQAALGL

Which Kd (AAG; read-out: Kd for AAG, in vitro equilibrium dialysis) does the source give for `CS(=O)(=O)c1ccc(C(=O)Nc2ccc(Cl)c(-c3ccccn3)c2)c(Cl)c1` [GDC-0449] here?
The Kd was 1.5 µM.

And the “average steady-state plasma concentration of total GDC-0449” value [1]?
Its value is “approximately 25 μmol/L”.

And the “unbound drug levels as % of the total drug” value [1]?
Its value is “less than 1%”.

With `Cc1ccc(NC(=O)c2ccc(CN3CCN(C)CC3)cc2)cc1Nc1nccc(-c2cccnc2)n1` [imatinib] as the molecule, how does the “binding affinity for AAG (Ka)” value (AAG) read?
The value was 1.7e+06 L/mol.

For `CC(C)(C(=O)NCC(F)(F)C(F)(F)F)C(=O)N[C@@H]1C(=O)Nc2ccccc2-c2ccccc21` [RO4929097, RO4929097 (γ-secretase inhibitor)], which Kd (HSA) is on record?
The Kd was 90.9 µM.

Which “Decrease in average systemic exposure to total RO4929097” value ([2]; co-administered with GDC-0449) does the source give for `CC(C)(C(=O)NCC(F)(F)C(F)(F)F)C(=O)N[C@@H]1C(=O)Nc2ccccc2-c2ccccc21` [RO4929097] here?
Its value is 8.3 fold.

And the “Decrease in average unbound RO4929097 exposure” value ([2]; co-administered with GDC-0449)?
The value was 1.7 fold.

What about the “Unbound RO4929097 AUC0–24h” value [2, 6] of the same molecule?
The value was 52.8 (33.2–64.9) nmol/L h.

And the “Unbound RO4929097 Cmax” value [2, 6]?
The value was 4.3 (2.7–5.6) nmol/L.

What about the AUC(0-t) ([2]; human, plasma, oral, Total RO4929097 AUC0–24h, in combination with GDC-0449 150 mg orally, median (interquartile range), n = 8) of the same molecule?
The AUC(0-t) was 723 nM·h.

What about the Tmax ([2]; human, plasma, Total RO4929097 Tmax, given alone, 20 mg orally, median (interquartile range), n = 8) of the same molecule?
Its Tmax is 2.5 h.

And the Tmax ([2]; human, plasma, Unbound RO4929097 Tmax, given alone, 20 mg orally, median (interquartile range), n = 8)?
The Tmax was 1.5 h.

And the “Interindividual variability of total RO4929097 AUC0-24h (max/min)” value ([2]; single oral dose of 20 mg)?
Its value is 16 fold and up to 16 fold.

And the “Interindividual variability of total RO4929097 Cmax (max/min)” value ([2]; single oral dose of 20 mg)?
Its value is 15 fold.

What about the “Interindividual variability of unbound RO4929097 AUC0-24h (max/min)” value ([2]; single oral dose of 20 mg) of the same molecule?
The value was 4 fold.

And the “Interindividual variability of unbound RO4929097 Cmax (max/min)” value ([2]; single oral dose of 20 mg)?
The value was 3 fold.

And the “Unbound RO4929097 AUC0-24h, range among patients” value ([2]; single oral dose of 20 mg)?
The value was 28.1 to 113.0 nM·h.

What about the “Unbound RO4929097 Cmax, range among patients” value ([2]; single oral dose of 20 mg) of the same molecule?
The value was 1.9 to 6.1 nM.

What about the “Coefficient variation of AUC0-24h, total RO4929097” value [2, 7] of the same molecule?
Its value is 99%.

What about the “Coefficient variation of AUC0-24h, unbound RO4929097” value [2, 7] of the same molecule?
The value was 49%.

What about the “RO4929097 Notch-inhibitory activity in presence of AAG” value (NOTCH1; AAG 0.5, 1.4, […], total RO4929097 500 and 5,000 nmol/L) of the same molecule?
Its value is “significantly reduced”.

And the inhibition at 0.05 µM (NOTCH1; [8])?
Its inhibition at 0.05 µM is 2.1%.

And the inhibition at 0.5 µM (NOTCH1; [8])?
The inhibition at 0.5 µM was 62%.

And the inhibition at 5 µM (NOTCH1; [8])?
The inhibition at 5 µM was 73%.

And the IC50 (NOTCH1; Homo sapiens, U2OS, read-out: unbound RO4929097 concentration for 50% inhibition of the maximum Notch activity (IC50))?
Its IC50 is 0.109 µM.

And the “bound in human plasma” value (plasma proteins [3])?
The value was over 97%.

What about the “intraindividual variability in RO4929097 fraction unbound” value (plasma proteins [4]; during the treatment in individual patient) of the same molecule?
Its value is “up to 5 fold”.

What about the “interindividual variability in RO4929097 fraction unbound” value (plasma proteins [4]; patients, alone or in combination with GDC-0449) of the same molecule?
Its value is “up to 10 fold”.

What about the fraction unbound at 24 h (in vitro) of the same molecule?
The fraction unbound at 24 h was 0.047.

What about the “mean Fu” value ([5]; AAG 0.2 mg/mL) of the same molecule?
Its value is 19.0%.

What about the “RO4929097 fraction unbound estimated from Equation (A)” value ([5]; AAG 0.5 mg/mL) of the same molecule?
The value was 8%.

What about the “maximum binding concentration (nP) of AAG” value ([5]; AAG 1.4 mg/mL, Equation (C), GDC-0449 0 μmol/L) of the same molecule?
The value was 23.1 µmol/L and 23.1 ± 0.9 µmol/L.

What about the “maximum binding concentration (nP) of AAG” value ([5]; AAG 1.4 mg/mL, GDC-0449 5 μmol/L) of the same molecule?
The value was 25.3 ± 1.1 µmol/L.

And the “maximum binding concentration (nP) of AAG” value ([5]; AAG 1.4 mg/mL, GDC-0449 25 μmol/L)?
The value was 34.9 ± 2.0 µmol/L.

What about the “RO4929097 fraction unbound estimated from Equation (A)” value ([5]; AAG 1.4 mg/mL) of the same molecule?
The value was 3%.

And the “mean Fu” value ([5]; AAG […])?
Its value is 1.1%.

What about the “total binding constant (nK) for AAG” value ([5]; Equation (A), Fu versus protein concentration, nonlinear regression) of the same molecule?
The value was 1e+06 L/mol and 1.1e+06 L/mol.
